Assay results as given in BindingDB's records for doi:10.7270/Q2TX3CTT (Broad Institute, 2010).
Structures can show the parent of a compound that is named as a salt.

biological target: Glycogen synthase kinase-3 beta (Homo sapiens, UniProt P49841); experiment: concentration-response blocking of human GSK3B – biochemical, luminescence, cell-free homogeneous, retest, dose response (AID 434954)
Sequence (P49841 whole entry): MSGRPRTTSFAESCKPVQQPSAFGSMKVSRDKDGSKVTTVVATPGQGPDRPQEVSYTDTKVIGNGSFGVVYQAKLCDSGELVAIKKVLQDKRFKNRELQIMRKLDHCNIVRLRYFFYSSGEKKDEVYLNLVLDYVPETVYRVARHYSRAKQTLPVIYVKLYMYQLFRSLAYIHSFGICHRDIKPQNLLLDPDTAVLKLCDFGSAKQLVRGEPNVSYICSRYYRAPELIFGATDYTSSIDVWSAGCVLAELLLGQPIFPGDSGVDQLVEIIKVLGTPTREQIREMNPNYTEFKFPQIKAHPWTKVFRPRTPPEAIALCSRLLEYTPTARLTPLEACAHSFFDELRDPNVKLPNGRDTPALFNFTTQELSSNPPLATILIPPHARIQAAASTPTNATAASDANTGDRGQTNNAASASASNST

SMILES	EC50 [µM]
Cc1csc(SCC(=O)Nc2ccc(Cl)cn2)n1 [N-(5-chloropyridin-2-yl)-2-[(4-methyl-1,3-thiazol-2-yl)sulfanyl]acetamide]	19.4
CCOc1ccc(C(=O)NCC(=O)OCc2c(C)noc2C)cc1 [(3,5-dimethyl-1,2-oxazol-4-yl)methyl 2-[(4-ethoxybenzoyl)amino]acetate]	> 300
COc1cccc(C(N)=O)c1	> 300
NC(=S)c1cn(C2OC(CO)C(O)C2O)c2ncnc(N)c12 (stereo unspecified) [4-amino-7-[3,4-dihydroxy-5-(hydroxymethyl)oxolan-2-yl]pyrrolo[2,3-d]pyrimidine-5-carbothioamide]	12
O=C(O)c1cccc(Nc2ccnc(Nc3cccc(C(=O)O)c3)n2)c1 [MLS001213333]	> 300
O=C(Nc1ccc(O)c2c(=O)cc(-c3ccccc3Cl)oc12)c1ccc(Cl)cc1Cl	9.16
CCN1C(=O)[C@H]2[C@@H](c3ccc(-c4ccccc4)cc3)N[C@@](CC(C)C)(C(=O)OC)[C@H]2C1=O [SMR000814381]	> 300
CN1CCc2c(sc(NC(=O)Cc3ccccc3)c2C(N)=O)C1 [MLS000879155]	> 300
COc1ccc(/C=C/C(=O)NC2CCN(Cc3ccccc3)CC2)cc1OC [(E)-N-(1-benzylpiperidin-4-yl)-3-(3,4-dimethoxyphenyl)prop-2-enamide]	> 300
Cn1c(SCC(=O)Nc2ccccc2)nc2ccccc2c1=O [2-(3-Methyl-4-oxo-3,4-dihydro-quinazolin-2-ylsulfanyl)-N-phenyl-acetamide]	> 300
O=C(O)c1cccc(Nc2nc(-c3ccccc3)nc3ccccc23)c1 [SMR000538934]	> 300
Cc1ccc2nc(-c3ccccc3)cn2c1 [6-methyl-2-phenyl-imidazo[1,2-a]pyridine;hydrobromide]	29
Cc1cc(NC(=O)c2noc3c2CCc2ccccc2-3)n(-c2ccccc2)n1 [MLS000116423]	> 300
COCc1c(C(N)=O)nnn1-c1nonc1N [MLS000089737]	> 300
CCc1c(C)c2ccc(O)c(CN(C)C)c2oc1=O [8-[(dimethylamino)methyl]-3-ethyl-4-methyl-7-oxidanyl-chromen-2-one]	> 300
CC(=O)Nc1ccc(S(=O)(=O)Nc2ccc3c(c2)OCCO3)cc1Cl [MLS000850184]	> 300
CCOC(=O)C1C(C)=Nc2ncnn2C1c1ccc(N(C)C)cc1 (stereo unspecified) [ethyl 7-[4-(dimethylamino)phenyl]-5-methyl-1,7-dihydro-[1,2,4]triazolo[1,5-a]pyrimidine-6-carboxylate]	> 300
O=C(O)c1cccc(-c2ccc(CN=Nc3ccc([N+](=O)[O-])cc3)o2)c1 [MLS000777078]	> 300
CC(C)N1CCc2c(sc(NC(=O)CCc3ccccc3)c2C(N)=O)C1 [MLS000419104]	> 300
COC(=O)c1nnn(-c2nonc2N)c1COc1ccc(C=O)cc1OC [methyl 1-(4-azanyl-1,2,5-oxadiazol-3-yl)-5-[(4-methanoyl-2-methoxy-phenoxy)methyl]-1,2,3-triazole-4-carboxylate]	25.9
CCCCC(CC)C(=O)Nc1ncc([N+](=O)[O-])s1 (stereo unspecified) [2-ethyl-N-(5-nitro-2-thiazolyl)hexanamide]	64.2
O=C(Nc1nnc(-c2cc(Cl)ccc2Cl)o1)c1ccco1	> 300
CCOC(=O)C=C(C)[N+]1=N[C-](c2ccc(OC)cc2)CC1c1cccc([N+](=O)[O-])c1 (stereo unspecified) [(Z)-3-[5-(4-methoxyphenyl)-3-(3-nitrophenyl)-3,4-dihydropyrazol-2-yl]-2-butenoic acid ethyl ester]	> 300
COc1ccccc1Nc1nc(NCCC(C)C)nc(N)c1[N+](=O)[O-] [N'-(2-Methoxy-phenyl)-N-(3-methyl-butyl)-5-nitro-pyrimidine-2,4,6-triamine]	0.584

SMILES	EC50 [µM]
COC(=O)c1cn(NC(=O)c2cccnc2)c(=O)c2ccccc12 [1-keto-2-nicotinamido-isoquinoline-4-carboxylic acid methyl ester]	> 300
CCC(C)Oc1cc(-c2ccnc(Nc3cccc(Cl)c3)n2)ccn1 (stereo unspecified) [SMR000463563]	5.38
COc1cc(C=Nn2c(C3CCCCC3)n[nH]c2=S)cc(Br)c1O [MLS001164684]	4.17
CCCCCCN1C(=O)NC(=O)C(=CNCCCn2ccnc2)C1=O [(5E)-1-hexyl-5-[[3-(1-imidazolyl)propylamino]methylidene]-1,3-diazinane-2,4,6-trione]	14.3
CCOC(=O)C1=C(C)NC(=O)C1=CNc1ccccc1 [SMR000168580]	51.5
O=C1N=C(Nc2ccccc2Cl)SC1=Cc1ccc(C(=O)O)cc1 [MLS001203362]	> 300
CCSc1ccc2nnc(-c3cccc(F)c3)n2n1 [6-(ethylthio)-3-(3-fluorophenyl)-[1,2,4]triazolo[4,3-b]pyridazine]	18.7
O=C(Nc1ccccn1)Nc1cccs1 [MLS000093554]	> 300
O=C(NC(=S)Nc1cccc2c(O)cccc12)c1ccco1 [N-[(5-hydroxynaphthalen-1-yl)carbamothioyl]furan-2-carboxamide]	83.9
CC1CCN(c2oc(-c3ccccc3Cl)nc2C#N)CC1 [SMR000041709]	> 300
Nc1nc(NCCCN2CCOCC2)nc(Nc2ccccc2)c1[N+](=O)[O-] [SMR000219678]	2.24
CCOc1ccc(N2C(=O)C(=Nc3ccccc3O)C(Cl)C2=O)cc1 (stereo unspecified) [SMR000124402]	> 300
CN(C)c1nc2c(N)ncnc2n1[C@H]1O[C@@H](CO)[C@H](O)[C@@H]1O [MLS001181978]	> 300
OC(c1ccccc1)c1ccncc1 (stereo unspecified) [phenyl(pyridin-4-yl)methanol]	> 300
Cc1c(Br)c([N+](=O)[O-])nn1CC(=O)Nc1c(C)n(C)n(-c2ccccc2)c1=O [2-(4-Bromo-5-methyl-3-nitro-pyrazol-1-yl)-N-(1,5-dimethyl-3-oxo-2-phenyl-2,3-dihydro-1H-pyrazol-4-yl)-acetamide]	> 300
COC(=O)CCC(=O)Oc1ccc(OC(=O)CCC(=O)OC)cc1 [4-O-[4-(4-methoxy-4-oxobutanoyl)oxyphenyl] 1-O-methyl butanedioate]	> 300
O=C(O)/C=C/c1cn(-c2ccccc2)nc1-c1cccc([N+](=O)[O-])c1 [MLS000774824]	> 300
COC(=O)c1ccccc1Nc1ccnc(Cl)n1 [methyl 2-[(2-chloropyrimidin-4-yl)amino]benzoate]	> 300
COc1cccc(C(=O)CC(C#N)c2ccc(F)cc2)c1 (stereo unspecified) [MLS001165246]	> 300
CCCCC(=O)Nc1nc2c(OC)cc([N+](=O)[O-])cc2s1 [SMR000363192]	> 300
c1ccc(Nc2nc(-c3ccccc3)nc3ccccc23)cc1 [N,2-diphenylquinazolin-4-amine]	> 300
O=C(Nc1cccc2c1C(=O)NC2=O)c1cccc(-n2c(O)ccc2O)c1	> 300
COc1cccc(C(=O)Nc2nc3ccc(S(C)(=O)=O)cc3s2)c1 [SMR000280607]	> 300
COc1cc([CH+][N-]NC(=O)COc2ccc([N+](=O)[O-])cc2)ccc1OCC(=O)N1CCOCC1 [N-[[3-methoxy-4-[2-(4-morpholinyl)-2-oxoethoxy]phenyl]methylideneamino]-2-(4-nitrophenoxy)acetamide]	> 300

SMILES	EC50 [µM]
COc1cc(/C=N/NC(=O)c2cccc(Cl)c2)ccc1Oc1ccc([N+](=O)[O-])cn1 [MLS000779574]	> 300
Nc1nonc1-n1nnc(C(=O)NN=Cc2ccoc2)c1CSc1ccc(Cl)cc1 [1-(4-amino-1,2,5-oxadiazol-3-yl)-5-[(4-chlorophenyl)sulfanylmethyl]-N-(furan-3-ylmethylideneamino)triazole-4-carboxamide]	> 300
O=C(CCc1ccccc1)Nc1cccc([N+](=O)[O-])c1 [MLS000856399]	> 300
Cc1cc(NC(=O)/C=C/c2cccc(F)c2)n(-c2nc3ccccc3[nH]2)n1 [(E)-N-[2-(1H-benzimidazol-2-yl)-5-methylpyrazol-3-yl]-3-(3-fluorophenyl)prop-2-enamide]	> 300
O=C(Nc1ccc(-c2nc3ccccc3o2)cc1)c1ccc(N2CCOCC2)c([N+](=O)[O-])c1 [SMR000201361]	> 300
CCC(N=C(S)NC1CCCCC1)c1ccccc1 (stereo unspecified) [SMR000678367]	> 300
CCc1n[nH]c(=S)n1N=CC(C)=Cc1ccccc1 [MLS001164489]	> 300
COCCNc1nc(SC)nc2sc3c(c12)CCN(C)C3 [N-(2-methoxyethyl)-7-methyl-2-methylsulfanyl-6,8-dihydro-5H-pyrido[4,5]thieno[1,2-c]pyrimidin-4-amine]	198
Nc1nc(NCc2ccco2)nc(Nc2cccc(F)c2)c1[N+](=O)[O-] [SMR000436034]	> 300
c1ccc(CCCNCC2COc3ccccc3O2)cc1 (stereo unspecified)	> 300
CCN(CC)Cc1c(C(=O)NN=Cc2c(Cl)cccc2Cl)nnn1-c1nonc1N [SMR000620609]	> 300
CN(Cc1c(C(=O)NN=Cc2ccc(O)cc2)nnn1-c1nonc1N)C1CCCCC1 [MLS001142838]	0.186
O=C(O)Cc1sc(N[N-][CH+]c2ccc(-c3ccc(Cl)c([N+](=O)[O-])c3)o2)nc1O [MLS000689975]	> 300
Cc1ccc(C)c(Nc2nc(-c3ccncc3)nc3ccccc23)c1	> 300
Cc1oc2c(CN(C)C)c(O)ccc2c(=O)c1-c1cscn1	> 300
COc1ccc2c(c1)cc1c(=O)n(CC(=O)NCCCN3CCOCC3)nc(C)n12 [SMR000624522]	> 300
Cc1c(O)c(CN2CCCCC2)cc2c1oc(=O)c1ccccc12 [MLS000551544]	> 300
O=C(O)Cn1c(=O)c2c3c(sc2n(Cc2ccccc2F)c1=O)CCCC3 [SMR000544593]	> 300
O=c1cc(-c2ccc(O)cc2)oc2cc(O)cc(O)c12 [Naringenin, 18]	49.5
COc1ccc(-c2nnc(NC(=O)C3=COCCO3)o2)cc1 [MLS000722006]	> 300
COc1cccc2cc(C(=O)NCc3ccc(C)cc3)c(=N)oc12	> 300
Cc1ccccc1C1=NC(C(F)(F)F)(C(F)(F)F)c2c(n(C)c(=O)n(C)c2=O)N1 [1,3-dimethyl-7-(2-methylphenyl)-5,5-bis(trifluoromethyl)-8H-pyrimido[4,5-d]pyrimidine-2,4-dione]	> 300
COc1cccc(C2c3c(n[nH]c3C)N=C3CC(C)(C)CC(=O)C32)c1 (stereo unspecified) [SMR000347812]	0.958
